# Columns and labels:
# Assay type in all cases: biochemical
# [1] = tested on: lactate dehydrogenase from Pichia kudriavzevii (PkLDH); experiment: Thermal stability of PkLDH (residual activity ratio after heat treatment, potassium phosphate buffer); conditions: PkLDH 2 U/mL
# Experimental: Thermal stability of LDH can be evaluated by heating LDH at a given temperature for a given time and comparing the activity thereof before and after heating. […] The LDH activity of an LDH solution which is allowed to stand still on ice without heating is taken as 100 and the LDH activity after heating is calculated and, the residual activity ratio (ratio of remaining activity) (%) can be determined.
# More specifically, the residual activity ratio (%) can be obtained by measuring LDH activity value (a) of a solution before heat treatment or before long-term storage and LDH activity value (b) of a solution after heat treatment or after long-term storage and calculating ((b)/(a)×100).
# Using the purified PkLDH preparation obtained above, the residual activity ratio (%) in the presence and absence of an LDH stabilizer were compared in accordance with the LDH thermal stability evaluation method mentioned previously, and in this manner, a stabilizer was searched.
# (§1) The thermal stability of LDH was evaluated by heating LDH at a given temperature for a given time and comparing the activities before and after heating. […] Further, LDH activity of an LDH solution allowed to stand still on ice without any heat treatment was measured. Based on the activity of this case without any heat treatment taken as 100, the activities of LDH solutions after heat treatment were calculated to determine the residual activity ratio (%). More specifically, the residual activity ratio (%) can be obtained by measuring LDH activity value (a) of a solution before heat treatment or before long-term storage, and LDH activity value (b) of a solution after heat treatment or after long-term storage, and then, calculating ((b)/(a)×100).
# The degree of LDH stability improving effect of each of the various added compounds was evaluated by preparing an LDH solution by allowing LDH to coexist with each of the various compounds, subjecting the solution to a heat treatment and determining the residual activity ratio (%) of the solution, and evaluating the residual activity (%) by mutually comparing the cases between compounds or comparing the case to a case where no compound was added.
# (§2) The activity of LDH was determined in accordance with the following procedure. […] Subsequently, a 30 mM PMS solution (50 μL) and an enzyme sample solution (50 μL) were added to the mixture to initiate a reaction. Absorbance at 520 nm was measured at the time of initiation of the reaction and over time and, the degree of reduction (ΔA520) in absorbance per minute as the enzymatic reaction progresses was obtained and LDH activity was calculated in accordance with the following Mathematical formula 2. Here, LDH activity is expressed by an enzyme (LDH) unit, and 1U is defined as the amount of the enzyme that can reduce 1 μmol DCIP per minute at 37° C. in the presence of 10 mM L-lactate.
# The pH of the PkLDH solution was adjusted to be 7.5 after each of the compounds was added. Heat treatment was carried out at 55° C. for 15 minutes. As a comparative example, an LDH solution prepared without adding any compound was subjected to the same experiment. It should be noted that, unless specified otherwise, the reagents used herein were all purchased from Tokyo Chemical Industry Co., Ltd. […]
# [2] = tested on: lactate dehydrogenase from Ogataea parapolymorpha (OgLDH); experiment: Thermal stability of OgLDH (residual activity ratio after heat treatment); conditions: OgLDH 2 U/mL, potassium phosphate buffer pH 7.5, 50°C for 15 minutes; for LDH stability improving effect: compound 300 mM
# Experimental: as §1, §2
# (§3) Stability evaluation tests were conducted to check the improvement effect of malic acid on the stability of various LDHs. […] Each of these diluted enzyme solutions (a mixture of an enzyme and L-malic acid, LDH concentration: 2 U/mL, L-malic acid concentration: 300 mM) was heated in accordance with the thermal-stability evaluation method described in Section 4. More specifically, PkLDH was treated at 55° C., whereas, CaLDH and OgLDH were treated at 50° C. for 15 minutes and then the residual activity ratio (%) was calculated, based on the activity before heating taken as 100. As a comparative example, a sample without adding any L-malic acid in the enzyme diluent was subjected to the same experiment, and the ratio of residual activity in both cases were compared.
# (§4) Using the purified OgLDH preparation obtained above, the ratios of remaining activities (%) in the presence and absence of a LDH stabilizer were compared in accordance with the LDH thermal stability evaluation method described in Section 4. In this manner, a stabilizer was searched.
# The pH of the LDH solution was adjusted to be 7.5 after each of the compounds was added. Heat treatment was carried out at 50° C. for 15 minutes.
# [3] = tested on: lactate dehydrogenase from Candida inconspicua (CaLDH); experiment: Thermal stability of CaLDH (residual activity ratio after heat treatment); conditions: CaLDH 2 U/mL, potassium phosphate buffer pH 7.5, 50°C for 15 minutes; for improvement effect on the stability of LDH: compound 300 mM
# Experimental: as §1, §2
# as §3, with “As a comparative example, a sample without adding any L-malic acid in the enzyme diluent was subjected to the same experiment, and the ratio of residual activity in both cases were compared.” left out
# [4] = tested on: lactate dehydrogenase from Pichia kudriavzevii (PkLDH); experiment: Chronoamperometry with printed electrode to which PkLDH plus stabilizer was applied and dried (5 mM mPMS/PBS); conditions: added compound 50 mM, +200 mV
# Experimental: An enzyme electrode was prepared using the purified PkLDH preparation obtained above and chronoamperometry was carried out. Each of the compounds was added to an enzyme solution in advance and tested whether or not a stabilizing effect of the enzyme during a drying step was exerted. LDH (1 U) solutions comprising compounds in a concentration (0.2% (w/v), 2% (w/v) and 50 mM, respectively) as described in Table 8 were each applied to a screen-printed carbon electrode C110 (manufactured by Metrohm-Dropsens) in an amount of 4 μL and dried at 40° C. for 60 minutes. The same procedure was repeated using an LDH solution without adding any one of the compounds. Each of the electrodes prepared was connected to ALS electrochemical analyzer 814D (manufactured by BAS) using a dedicated connector (DRP-CAC, manufactured by Drop Sense). Subsequently, 100 μL of a 2 mM mPMS/PBS solution was added dropwise to dissolve the dried LDH. The applied voltage was +200 mV (vs Ag/Ag+). An L-sodium lactate solution was added and a response current value 5 seconds after initiation of measurement was recorded. […] Further, in the same manner as above, a 1 U LDH solution comprising 1% polyacrylic acid was applied to a screen printed carbon electrode and dried and then a 2 mM mPMS/PBS solution (100 μL) was added dropwise to dissolve the dried LDH. Then, an L-sodium lactate solution was added such that the final concentration thereof would be 2 to 10 mM, and a response current value 5 seconds after initiation of measurement was recorded.
# Chronoamperometry was carried out by changing the concentration of the compound to be added as a stabilizer and the concentration of L-sodium lactate used as a substrate. To an electrode prepared in the same manner as in the preceding Section, 100 μL of a 5 mM mPMS/PBS solution was added dropwise to dissolve the dried LDH. A voltage of +200 mV (vs Ag/Ag+) was applied. An L-sodium lactate solution was added and a response current value 5 seconds after initiation of measurement was recorded.
# [5] = tested on: lactate dehydrogenase from Pichia kudriavzevii (PkLDH); experiment: Thermal stability of PkLDH in 150 mM HEPES buffer; conditions: PkLDH 2 U/mL; 150 mM HEPES buffer pH 7.5; added compound 300 mM; 55°C for 15 minutes
# Experimental: as §1
# as §2, with “Here, LDH activity is expressed by an enzyme (LDH) unit, and 1U is defined as the amount of the enzyme that can reduce 1 μmol DCIP per minute at 37° C. in the presence of 10 mM L-lactate.” left out
# [6] = biological target: T1, lactate dehydrogenase from Saccharomyces cereviciae (ScLDH) (Saccharomyces cerevisiae, UniProt P00175); experiment: Thermal stability of ScLDH (supernatant of crushed bacterial cells); conditions: ScLDH 2 U/mL; compound 300 mM; potassium phosphate buffer pH 7.5; 40°C for 15 minutes
# T1 construct: made in house; host or cells: Escherichia coli BL21 (pKK223-3-ScLDH); unpurified supernatant of crushed cells
# T1 sequence (P00175 86-591): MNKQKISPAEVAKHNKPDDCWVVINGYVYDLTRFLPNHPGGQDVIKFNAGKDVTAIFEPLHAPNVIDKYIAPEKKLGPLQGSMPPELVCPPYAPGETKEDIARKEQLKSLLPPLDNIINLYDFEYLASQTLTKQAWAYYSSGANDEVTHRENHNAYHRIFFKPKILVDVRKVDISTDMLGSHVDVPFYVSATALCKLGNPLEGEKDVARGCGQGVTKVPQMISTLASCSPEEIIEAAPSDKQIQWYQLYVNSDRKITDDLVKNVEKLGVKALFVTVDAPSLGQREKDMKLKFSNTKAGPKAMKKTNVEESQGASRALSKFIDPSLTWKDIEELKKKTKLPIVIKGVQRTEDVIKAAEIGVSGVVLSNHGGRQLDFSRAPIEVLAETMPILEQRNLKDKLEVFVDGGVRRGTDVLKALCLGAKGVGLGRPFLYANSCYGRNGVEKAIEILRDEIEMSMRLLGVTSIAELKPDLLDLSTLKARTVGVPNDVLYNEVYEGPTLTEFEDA
# Experimental: as §1, §2
# as §4, with “supernatant of a solution comprising crushed ScLDH bacterial cells” for “purified OgLDH preparation”
# The pH of the LDH solution was adjusted to be 7.5 after each of the compounds was added. Heat treatment was carried out at 40° C. for 15 minutes.
# [7] = added compound 300 mM, 150 mM potassium phosphate buffer pH 7.5, 0.15% BSA, 55°C for 15 minutes
compound,measurement,setting,value
"OC[C@H]1O[C@@](CO)(O[C@H]2O[C@H](CO)[C@@H](O)[C@H](O)[C@H]2O)[C@@H](O)[C@@H]1O [Sucrose, sucrose]",Residual activity ratio (%),[1]; [7],42%
O=C(O)C[C@@H](O)C(=O)O [D-malic acid],Residual activity ratio (%),[1]; [7],47%
NCC(=O)O [glycine],LDH stability improving effect,[2],11%
"N[C@@H](CC(=O)O)C(=O)[O-].[Na+] [Sodium aspartate, L-sodium aspartate]",Residual activity ratio (%),[1]; [7],64%
O=C(O)CN(CCN(CC(=O)O)CC(=O)O)CC(=O)O [ethylenediaminetetraacetic acid],improvement effect on the stability of LDH,[3],56%
O=C([O-])CC(O)C(=O)[O-].[Na+].[Na+] [L-sodium malate],"Current value 5 second later (μA), 0 mM lactate",[4],0.43 μA
same,"Current value 5 second later (μA), 5 mM lactate",[4],94.4 μA
"O=C(O)CC(=O)C(=O)O [Oxaloacetic acid, oxaloacetic acid]",Residual activity ratio (%),[1]; [7],45%
OC[C@H]1O[C@H](O[C@H]2[C@H](O)[C@@H](O)C(O)O[C@@H]2CO)[C@H](O)[C@@H](O)[C@@H]1O (mixture of isomers) [maltose monohydrate],improvement effect on the stability of LDH,[3],5%
O[C@H]1[C@H](O)[C@@H](O)[C@H](O)[C@@H](O)[C@H]1O [myo-inositol],"Current value 5 second later (μA), 0 mM lactate",[4],0.23 μA
same,"Current value 5 second later (μA), 5 mM lactate",[4],104.4 μA
"OC[C@H]1O[C@H](O[C@H]2O[C@H](CO)[C@@H](O)[C@H](O)[C@H]2O)[C@H](O)[C@@H](O)[C@@H]1O [Trehalose dihydrate, trehalose dihydrate]",Residual activity ratio (%),[1]; [7],41%
O=C(O)C[C@H](O)C(=O)O [L-malic acid],Residual activity ratio (%) CaLDH,[3]; added compound 300 mM,45%
same,Residual activity ratio (%),[5],100%
same,Residual activity ratio (%),[1]; [7],80%
same,Residual activity ratio (%),"[1]; final concentration of malic acid 10 mM, 55°C for 15 min",36%
same,Residual activity ratio (%),"[1]; final concentration of malic acid 30 mM, 55°C for 15 min",44%
same,Residual activity ratio (%),"[1]; final concentration of malic acid 100 mM, 55°C for 15 min",52%
same,Residual activity ratio (%),"[1]; final concentration of malic acid 500 mM, 55°C for 15 min",90%
same,stability improving effect on ScLDH,[6],41%
same,Residual activity ratio (%) OgLDH,[2]; added compound 300 mM,88%
DL-leucine acid,Residual activity ratio (%),[1]; [7],92%
N[C@@H](Cc1c[nH]cn1)C(=O)O [L-histidine],LDH stability improving effect,[2],27%
"N.N.O=S(=O)(O)O [Ammonium sulfate, ammonium sulfate]",Residual activity ratio (%),[1]; [7],54%
same,stability improving effect on ScLDH,[6],24%
"O=C([O-])[C@H](O)[C@@H](O)[C@H](O)[C@H](O)CO.[Na+] [Sodium gluconate, sodium gluconate]",Residual activity ratio (%),[1]; [7],57%
"O=C([O-])CC(O)(CC(=O)[O-])C(=O)[O-].[Na+].[Na+].[Na+] [Sodium citrate, sodium citrate]",Residual activity ratio (%),[1]; [7],42%
"O=C(O)/C=C\C(=O)O [Maleic acid, maleic acid]",Residual activity ratio (%),[1]; [7],45%
"O=S(=O)([O-])[O-].[Na+].[Na+] [Sodium sulfate, sodium sulfate]",Residual activity ratio (%),[1]; [7],50%
"O=C(O)C(O)Cc1ccccc1 (racemic) [DL-phenyllactic acid, DL-3-phenyllactic acid]",Residual activity ratio (%),[1]; [7],87%
Cl.NCCCC[C@H](N)C(=O)O [L-lysine hydrochloride],LDH stability improving effect,[2],66%
"O=C(O)/C=C/C(=O)O [Fumaric acid, fumaric acid]",Residual activity ratio (%),[1]; [7],41%
"O=C(O)CCC(=O)O [Succinic acid, succinic acid]",Residual activity ratio (%),[1]; [7],54%

# Reference: US20230365959A1, “METHOD FOR IMPROVING THE STABILITY OF A COMPOSITION COMPRISING A FLAVIN-DEPENDENT LACTATE DEHYDROGENASE” (KIKKOMAN CORPORATION, priority 2020, published 2023)
